Source: patent publication US6297241A, “Carbamate derivatives of diaryl 1,3,4-oxadiazolone” (Bristol-Myers Squibb Company, priority 2000, dated 2001)

Assays:
[1] = tested on: cloned mammalian (mSlo or hSlo) BK channels; assay: Increase of cloned BK-mediated outward current in Xenopus oocytes, two-electrode voltage clamp; assay type: cell-based; conditions: 1 μM; at least 5 oocytes; mSlo or hSlo expressed in Xenopus oocytes
[2] = tested on: cortical infarct volume; assay: Focal stroke model: permanent left MCA and CCA occlusion, temporary right CCA occlusion; assay type: in vivo; conditions: Wistar rat; 10 μg/kg i.v. single bolus two hours after MCA occlusion; measured 24 hours after MCAO
Protocol: To determine the ability of the compounds of the present invention to reduce cell loss resulting from neuronal ischemia, a standard focal cerebral ischemia is induced by permanent occlusion of the left middle cerebral artery (MCA) and common carotid artery (CCA) with one hour occlusion of the right CCA in the Wistar rat. The surgeries are performed using the sub-temporal approach of A. Tamura, et al., J. Cereb. Blood Flow Metab., 1, pp. 53-60, (1981) and its modifications [K. Osborne, et al., J. Neurol Neurosurg. Psychiatry, 50, pp. 402-410 (1987) and S. Menzies, et al., Neurosurgery, 31, pp.100-107, (1992).]
The compound of Example 1 was evaluated in the focal stroke model involving permanent occlusion of the left MCA (MCAO) and CCA (CCAO) and temporary occlusion of the right CCA in the Wistar rat. This procedure results in a reliably large neocortical infarct volume that is measured by means of vital dye exclusion in serial slices through the brain 24 hours after MCAO. In the present test, compounds were administered using an i.v. or i.p. route of administration two hours after occlusion.

[3] = tested on: non-BK native currents in the oocytes; assay: Effect on non-BK native currents (current remaining with IBTX) in oocytes; conditions: at the tested concentration; IBTX 50 nM
[4] = Rapid screen of prodrug hydrolysis and drug release in plasma (HPLC); assay type: in vitro ADME; conditions: fresh rat plasma, 37° C., 10 μg/mL, stock in PEG-400, analysis 5 minutes after incubation
Protocol: A rapid screen to determine the ability of prodrugs to hydrolyze and release the drug (compound of Example 1) is conducted as follows. A 1 mg/mL stock solution of the prodrug is prepared in distilled water or acetonitrile or PEG-400. Plasma from freshly collected rat or human blood is used in this assay. To 1 mL of plasma at 37° C. was added 10 μL of stock solution of prodrug and mixed gently. Immediately after the mixing, 100 μL of plasma was removed and quenched with 300 μL of acetonitrile (Zero time sample). Samples were also obtained at 30 minutes and quenched immediately. The quenched samples were centrifuged to obtain a clear supernatant for analysis. The stock solution, T=0 and T=30 samples were analyzed by a HPLC assay that separates the drug from the prodrug. Based on the relative peak areas of prodrug and drug in these samples, different prodrugs are characterized as fast, moderate and slow release agents. For example, in this model, the compound of Example 2 was dissolved in PEG-400 at a concentration of 1 mg/mL and incubated at 10 μg/mL in fresh rat plasma at 37° C.

SMILES | BK current as % of control of IBTX-sensitive current [1] [%] | Reduction of cortical infarct volume vs vehicle-treated (water) control [2] | Effect on non-BK native currents in the oocytes [3] | Conversion of prodrug to the drug (compound of Example 1) in plasma [4]
O=c1oc(-c2ccc(C(F)(F)F)cc2)nn1Cc1cc(Cl)ccc1O [Example 1] | 126 | about 18% | did not effect non-BK native currents | –
O=C(O)CC(NC(=O)Oc1ccc(Cl)cc1Cn1nc(-c2ccc(C(F)(F)F)cc2)oc1=O)C(=O)O (stereo not shown) [Example 2, N-[[4-Chloro-2-[[5-[4-(trifluoromethyl)phenyl]-2. 3-dihydro-2-oxo-1,3,4-oxadiazol-3-yl]methyl]phenoxy]carbonyl]aspartic acid] | – | – | – | conversion of the compound of Example 2 to the compound of Example 1
